Literature values as cited in PMC11345841, “Exploring 2-Sulfonylpyrimidine Warheads as Acrylamide Surrogates for Targeted Covalent Inhibition: A BTK Story” (Journal of Medicinal Chemistry, 2024).
Where two headings read alike, the source gives them in different places.

Test system: 468 human kinases
Conditions: cited from earlier work; for Percent of Control: ref Buhimschi/Crews

C=CC(=O)N1CCC[C@@H](n2nc(-c3ccc(Oc4ccccc4)cc3)c3c(N)ncnc32)C1 [Compound 1g, Ibrutinib, reference compound]
%Control (@1000nM, ZAP70, ref Buhimschi et al. 2018): 77% | Percent of Control (ABL1(F317I)-nonphosphorylated): 30% | Percent of Control (ABL1(F317I)-phosphorylated): 67% | Percent of Control (ABL1(F317L)-nonphosphorylated): 25% | Percent of Control (ABL1(F317L)-phosphorylated): 49% | Percent of Control (ABL1(H396P)-nonphosphorylated): 18% | Percent of Control (ABL1(Q252H)-nonphosphorylated): 6.4% | Percent of Control (ABL1(Q252H)-phosphorylated): 67% | Percent of Control (ABL1(Y253F)-phosphorylated): 49% | Percent of Control (ABL1-nonphosphorylated): 9% | Percent of Control (ABL2): 43% | Percent of Control (ASK2 (MAP3K6)): 54% | Percent of Control (BLK): 0.1% | Percent of Control (BMX): 38% | Percent of Control (BRAF(V600E)): 59% | Percent of Control (BRK (PTK6)): 1.4% | Percent of Control (BTK): 0% | Percent of Control (CDK2): 66% | Percent of Control (CSK): 2.4% | Percent of Control (CSNK1E): 44% | Percent of Control (CTK (MATK)): 66% | Percent of Control (EGFR(E746-A750del)): 5.1% | Percent of Control (EGFR(G719C)): 0.35% | Percent of Control (EGFR(G719S)): 0.45% | Percent of Control (EGFR(L747-E749del, A750P)): 0.3% | Percent of Control (EGFR(L747-S752del, P753S)): 12% | Percent of Control (EGFR(L747-T751del,Sins)): 1.4% | Percent of Control (EGFR(L858R)): 1.4% | Percent of Control (EGFR(L858R,T790M)): 6.9% | Percent of Control (EGFR(L861Q)): 0.1% | Percent of Control (EGFR(S752-I759del)): 0% | Percent of Control (EGFR(T790M)): 0.15% | Percent of Control (EGFR): 0% | Percent of Control (EPHB6): 8.6% | Percent of Control (ERBB2): 0% | Percent of Control (ERBB3): 0% | Percent of Control (ERBB4): 0% | Percent of Control (ERN1): 38% | Percent of Control (FGFR1): 42% | Percent of Control (FGFR2): 42% | Percent of Control (FGFR3(G697C)): 35% | Percent of Control (FGFR3): 45% | Percent of Control (FGR): 10% | Percent of Control (FLT3(D835H)): 18% | Percent of Control (FLT3(D835V)): 1.9% | Percent of Control (FLT3(D835Y)): 44% | Percent of Control (FLT3(ITD)): 55% | Percent of Control (FLT3(ITD,D835V)): 58% | Percent of Control (FLT3(K663Q)): 38% | Percent of Control (FLT3(N841I)): 31% | Percent of Control (FLT3(R834Q)): 54% | Percent of Control (FLT3): 26% | Percent of Control (FLT4): 38% | Percent of Control (FRK): 11% | Percent of Control (FYN): 5.3% | Percent of Control (HCK): 0.3% | Percent of Control (ITK): 6.8% | Percent of Control (KIT(A829P)): 21% | Percent of Control (KIT(L576P)): 42% | Percent of Control (KIT(V559D)): 31% | Percent of Control (KIT): 57% | Percent of Control (LATS2): 66% | Percent of Control (LCK): 0.2% | Percent of Control (LIMK1): 41% | Percent of Control (LOK (STK10)): 41% | Percent of Control (LZK (MAP3K13)): 58% | Percent of Control (MAP3K2): 54% | Percent of Control (MAP3K15): 53% | Percent of Control (MEK1 (MAP2K1)): 14% | Percent of Control (MEK2 (MAP2K2)): 21% | Percent of Control (MEK5 (MAP2K5)): 0.8% | Percent of Control (MET(M1250T)): 56% | Percent of Control (MKK7 (MAP2K7)): 0.7% | Percent of Control (MKNK2): 50% | Percent of Control (NDR2 (STK38L)): 48% | Percent of Control (PDGFRA): 48% | Percent of Control (PDGFRB): 35% | Percent of Control (RET(M918T)): 14% | Percent of Control (RET): 9.3% | Percent of Control (RIPK2): 3.7% | Percent of Control (RIPK5 (DSTYK)): 15% | Percent of Control (SNARK (NUAK2)): 68% | Percent of Control (SRC): 3.2% | Percent of Control (SRMS): 0% | Percent of Control (SRPK1): 54% | Percent of Control (STK35): 55% | Percent of Control (STK36): 60% | Percent of Control (TEC): 1.9% | Percent of Control (TIE2 (TEK)): 58% | Percent of Control (TNK1): 23% | Percent of Control (TNK2): 35% | Percent of Control (TNNI3K): 53% | Percent of Control (TRKA (NTRK1)): 67% | Percent of Control (TRPM6): 54% | Percent of Control (TTK): 40% | Percent of Control (TXK): 3.8% | Percent of Control (VEGFR2 (KDR)): 59% | Percent of Control (WNK2): 65% | Percent of Control (YANK2 (STK32B)): 49% | Percent of Control (YES (YES1)): 2.6% | Percent of Control (ZAK): 38%
